In brackets after ≈: the same amount, converted by molar mass. Several values for one entry are separate records, joined by “and”; a condition that tells them apart may be missing. Equal values may be shown once. Read-outs that look alike come from different tables or passages of the source.
Key:
E. coli topoisomerase IV [1] = molecular target: T1, E. coli topoisomerase IV (Escherichia coli, UniProt P0AFI2+P20083); assay: Topoisomerase IV cleavage-complex assay; assay type: biochemical
T1 construct: purchased Inspiralis
Experimental: (§1) Reactions were stopped by adding 3.8 μL of a stop solution containing 0.8 μL Proteinase K (20 mg/mL) and 3 μL SDS (2%), followed by incubation at 37 °C for 60 min. Afterward, 4 μL of STEB loading buffer was added, and samples were run on pre-stained 0.8% agarose gels containing 0.4 μg/mL ethidium bromide. […] The % nicked and linear DNA formed with varying compound concentrations was plotted for comparison.

K. pneumoniae KPNIH1 = assay: microbe, parasite or virus in culture; assay type: cell-based; conditions: Klebsiella pneumoniae
[2] = molecular target: S. aureus topoisomerase IV (Staphylococcus aureus, UniProt P0C1S7+P0C1U9); assay: biochemical; set-up: Topo IV decatenation inhibition response: unit not given here
Experimental: (§2) Assays with P. aeruginosa topoisomerase IV (3 nM) were conducted in a similar buffer but with 50 mM HEPES-KOH (pH 7.9), 100 mM potassium glutamate, 6 mM magnesium acetate, 6 mM DTT, 1 mM ATP, 2 mM spermidine, and 50 μg/mL albumin. For S. aureus topoisomerase IV assay, the reactions contained 4 nM enzyme in an assay buffer composed of 50 mM Tris-HCl (pH 7.5), 5 mM MgCl₂, 5 mM DTT, 1.5 mM ATP, 350 mM potassium glutamate, and 0.05 mg/mL albumin. The procedures followed were consistent with those used in the supercoiling assays. Decatenated minicircles were resolved on 0.8% agarose gels, while the kDNA substrate remained in the wells. Gels were stained with 0.8 μg/mL ethidium bromide solution for 10 min, followed by destaining. DNA bands were visualized using a gel documentation system, and compound inhibition analysis was carried out using the same procedures described for the supercoiling assays.

P. aeruginosa BAA 2797 = assay: microbe, parasite or virus in culture; assay type: cell-based; conditions: Pseudomonas aeruginosa, BAA2797
E. coli gyrase = molecular target: T2, E. coli gyrase (Escherichia coli, UniProt P0AES4+P0AES6); assay type: biochemical; conditions: gyrase cleavage-complex assay
T2 construct: purchased Inspiralis
Experimental: as §1

Human topo IIα = Human topo IIα (Homo sapiens, UniProt P11388); assay: Human topo IIα decatenation assay; assay type: biochemical
Experimental: Human topo IIα (0.9 nM) and topo IIß (2.2 nM) decatenation assays were performed following the same protocol used for bacterial topoisomerase IV decatenation assays. The assay buffer was made of 50 mM Tris. HCl (pH 7.5), 125 mM NaCl, 10 mM MgCl2, 5 mM DTT, and 100 μg/mL albumin.

[3] = tested on: E. coli MG1655 GyrA M120A, ParC M118A; assay: microbe, parasite or virus in culture; assay type: cell-based; conditions: Escherichia coli
E. coli topoisomerase IV [4] = molecular target: T1, E. coli topoisomerase IV; assay: biochemical; assay type: biochemical
[5] = tested on: E. coli MG1655 (GyrA WT, ParC WT); assay: microbe, parasite or virus in culture; assay type: cell-based; conditions: Escherichia coli
E. faecalis ATCC 29212 = assay: MIC broth microdilution; assay type: cell-based; conditions: Enterococcus faecalis, ATCC29212
E. coli ATCC 25922 [6] = conditions: >4× MIC; cited from earlier work
E. coli ATCC 25922 [7] = assay: Resistant mutant generation by serial passage method; assay type: cell-based; conditions: Escherichia coli, read-out: MIC, serial passage
[8] = molecular target: P. aeruginosa topoisomerase IV (Pseudomonas aeruginosa, UniProt Q9HUJ8+Q9HUK1); assay: Topoisomerase IV decatenation assay, P. aeruginosa; assay type: biochemical; set-up: Topo IV decatenation inhibition response: unit not given here
Experimental: as §2, with “Topoisomerase IV decatenation reactions were performed using 2.5 nM E. coli enzyme and 60 ng kinetoplast DNA (kDNA) in an assay buffer containing 50 mM HEPES-KOH (pH 7.6), 100 mM potassium glutamate, 10 mM magnesium acetate, 10 mM DTT, 1 mM ATP, and 50 μg/mL albumin. Assays” for “Assays”

S. aureus = conditions: ref 6 (Hameed P et al., 2024); cited from earlier work
E. coli BAA 2471 = assay: microbe, parasite or virus in culture; assay type: cell-based; conditions: Escherichia coli, BAA2471

T1 sequence (P20083 whole entry): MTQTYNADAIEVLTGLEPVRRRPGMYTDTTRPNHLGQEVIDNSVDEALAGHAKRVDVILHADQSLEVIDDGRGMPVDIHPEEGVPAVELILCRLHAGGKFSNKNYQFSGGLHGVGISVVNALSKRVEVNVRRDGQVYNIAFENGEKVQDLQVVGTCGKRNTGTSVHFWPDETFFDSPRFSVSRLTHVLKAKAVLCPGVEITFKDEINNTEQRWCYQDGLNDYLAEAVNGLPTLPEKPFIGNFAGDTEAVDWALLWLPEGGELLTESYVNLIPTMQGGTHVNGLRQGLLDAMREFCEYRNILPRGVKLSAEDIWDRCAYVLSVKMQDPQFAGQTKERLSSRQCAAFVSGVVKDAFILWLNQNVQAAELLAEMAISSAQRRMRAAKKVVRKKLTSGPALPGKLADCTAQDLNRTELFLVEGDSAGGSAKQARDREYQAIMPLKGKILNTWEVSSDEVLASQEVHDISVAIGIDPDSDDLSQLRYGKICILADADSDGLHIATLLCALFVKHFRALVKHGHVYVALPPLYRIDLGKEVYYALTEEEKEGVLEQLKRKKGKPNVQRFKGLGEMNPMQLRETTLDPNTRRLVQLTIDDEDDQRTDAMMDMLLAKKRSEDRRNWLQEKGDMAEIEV
T1 sequence (P0AFI2 whole entry): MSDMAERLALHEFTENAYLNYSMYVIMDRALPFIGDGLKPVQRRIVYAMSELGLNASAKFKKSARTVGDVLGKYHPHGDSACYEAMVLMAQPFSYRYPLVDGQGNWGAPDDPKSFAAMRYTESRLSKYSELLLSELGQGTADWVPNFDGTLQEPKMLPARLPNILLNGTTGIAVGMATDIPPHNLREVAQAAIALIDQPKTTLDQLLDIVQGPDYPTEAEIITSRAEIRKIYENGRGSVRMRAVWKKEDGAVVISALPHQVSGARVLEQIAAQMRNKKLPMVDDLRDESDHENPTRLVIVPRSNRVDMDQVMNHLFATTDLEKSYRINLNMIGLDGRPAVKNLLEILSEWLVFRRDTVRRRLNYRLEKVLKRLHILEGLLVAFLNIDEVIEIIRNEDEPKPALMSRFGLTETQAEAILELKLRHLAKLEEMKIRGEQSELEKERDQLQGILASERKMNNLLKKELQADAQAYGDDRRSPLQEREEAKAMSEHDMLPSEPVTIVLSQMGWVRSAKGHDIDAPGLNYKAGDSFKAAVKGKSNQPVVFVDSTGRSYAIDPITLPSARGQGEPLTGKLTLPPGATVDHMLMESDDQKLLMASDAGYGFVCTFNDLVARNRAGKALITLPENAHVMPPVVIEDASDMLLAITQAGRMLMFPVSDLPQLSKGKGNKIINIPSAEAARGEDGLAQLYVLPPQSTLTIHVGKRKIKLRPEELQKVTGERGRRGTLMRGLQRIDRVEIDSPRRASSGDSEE
Chain of P. aeruginosa topoisomerase IV (Q9HUK1 whole entry): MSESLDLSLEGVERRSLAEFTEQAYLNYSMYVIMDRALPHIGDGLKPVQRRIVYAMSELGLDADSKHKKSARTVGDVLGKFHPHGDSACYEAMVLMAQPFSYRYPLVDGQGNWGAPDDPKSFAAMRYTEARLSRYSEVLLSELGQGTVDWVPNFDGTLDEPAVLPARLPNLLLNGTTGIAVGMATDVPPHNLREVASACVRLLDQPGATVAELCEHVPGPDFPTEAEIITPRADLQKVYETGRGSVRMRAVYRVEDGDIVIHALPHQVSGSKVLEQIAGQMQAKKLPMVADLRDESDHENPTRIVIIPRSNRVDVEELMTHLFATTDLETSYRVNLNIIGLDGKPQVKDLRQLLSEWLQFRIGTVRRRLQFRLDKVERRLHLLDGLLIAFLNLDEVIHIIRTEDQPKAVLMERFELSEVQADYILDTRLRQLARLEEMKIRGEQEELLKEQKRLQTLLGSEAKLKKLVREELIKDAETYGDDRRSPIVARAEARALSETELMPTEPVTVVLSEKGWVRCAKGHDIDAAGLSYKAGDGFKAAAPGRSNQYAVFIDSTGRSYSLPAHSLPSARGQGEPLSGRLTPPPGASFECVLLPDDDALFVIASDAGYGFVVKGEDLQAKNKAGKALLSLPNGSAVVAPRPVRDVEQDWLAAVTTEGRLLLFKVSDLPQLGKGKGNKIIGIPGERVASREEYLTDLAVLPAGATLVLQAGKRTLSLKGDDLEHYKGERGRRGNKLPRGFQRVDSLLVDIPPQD
Chain of P. aeruginosa topoisomerase IV (Q9HUJ8 whole entry): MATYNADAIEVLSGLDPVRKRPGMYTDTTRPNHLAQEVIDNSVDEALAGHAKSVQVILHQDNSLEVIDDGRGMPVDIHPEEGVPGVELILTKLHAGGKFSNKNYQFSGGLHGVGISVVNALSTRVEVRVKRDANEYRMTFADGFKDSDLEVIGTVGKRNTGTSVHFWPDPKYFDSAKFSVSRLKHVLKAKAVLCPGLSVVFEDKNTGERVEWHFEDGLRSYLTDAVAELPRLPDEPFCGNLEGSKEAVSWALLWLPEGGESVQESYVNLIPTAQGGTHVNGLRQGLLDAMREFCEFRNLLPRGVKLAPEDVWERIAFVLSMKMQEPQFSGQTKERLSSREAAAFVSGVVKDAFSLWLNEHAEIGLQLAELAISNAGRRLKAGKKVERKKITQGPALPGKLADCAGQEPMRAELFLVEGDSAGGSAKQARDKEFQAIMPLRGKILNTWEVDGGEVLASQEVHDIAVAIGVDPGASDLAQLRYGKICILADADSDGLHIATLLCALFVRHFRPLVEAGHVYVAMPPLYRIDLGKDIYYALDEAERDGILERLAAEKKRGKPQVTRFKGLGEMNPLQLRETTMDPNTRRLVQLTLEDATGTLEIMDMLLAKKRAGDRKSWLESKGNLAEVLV
Chain of S. aureus topoisomerase IV (P0C1U9 whole entry): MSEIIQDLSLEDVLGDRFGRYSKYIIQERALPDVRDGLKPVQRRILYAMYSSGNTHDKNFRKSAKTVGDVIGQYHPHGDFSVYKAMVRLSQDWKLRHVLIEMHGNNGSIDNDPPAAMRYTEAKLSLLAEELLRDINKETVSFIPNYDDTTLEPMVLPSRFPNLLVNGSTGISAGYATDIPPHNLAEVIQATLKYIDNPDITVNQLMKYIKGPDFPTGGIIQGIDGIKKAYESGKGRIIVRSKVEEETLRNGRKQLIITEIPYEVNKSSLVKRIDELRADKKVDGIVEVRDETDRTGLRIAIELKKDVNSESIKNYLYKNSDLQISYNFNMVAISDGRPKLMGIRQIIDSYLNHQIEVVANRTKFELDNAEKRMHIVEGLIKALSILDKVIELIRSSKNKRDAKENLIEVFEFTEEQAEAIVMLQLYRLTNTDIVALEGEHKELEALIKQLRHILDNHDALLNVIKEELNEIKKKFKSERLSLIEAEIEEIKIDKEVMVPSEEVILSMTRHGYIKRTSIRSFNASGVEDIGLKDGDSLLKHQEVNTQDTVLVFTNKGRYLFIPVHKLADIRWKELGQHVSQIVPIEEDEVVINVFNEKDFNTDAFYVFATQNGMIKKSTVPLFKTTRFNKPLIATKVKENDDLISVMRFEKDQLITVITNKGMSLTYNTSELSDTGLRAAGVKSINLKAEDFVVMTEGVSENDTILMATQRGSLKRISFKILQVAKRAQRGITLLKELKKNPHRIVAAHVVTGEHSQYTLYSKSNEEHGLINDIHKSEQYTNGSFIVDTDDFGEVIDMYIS
Chain of S. aureus topoisomerase IV (P0C1S7 whole entry): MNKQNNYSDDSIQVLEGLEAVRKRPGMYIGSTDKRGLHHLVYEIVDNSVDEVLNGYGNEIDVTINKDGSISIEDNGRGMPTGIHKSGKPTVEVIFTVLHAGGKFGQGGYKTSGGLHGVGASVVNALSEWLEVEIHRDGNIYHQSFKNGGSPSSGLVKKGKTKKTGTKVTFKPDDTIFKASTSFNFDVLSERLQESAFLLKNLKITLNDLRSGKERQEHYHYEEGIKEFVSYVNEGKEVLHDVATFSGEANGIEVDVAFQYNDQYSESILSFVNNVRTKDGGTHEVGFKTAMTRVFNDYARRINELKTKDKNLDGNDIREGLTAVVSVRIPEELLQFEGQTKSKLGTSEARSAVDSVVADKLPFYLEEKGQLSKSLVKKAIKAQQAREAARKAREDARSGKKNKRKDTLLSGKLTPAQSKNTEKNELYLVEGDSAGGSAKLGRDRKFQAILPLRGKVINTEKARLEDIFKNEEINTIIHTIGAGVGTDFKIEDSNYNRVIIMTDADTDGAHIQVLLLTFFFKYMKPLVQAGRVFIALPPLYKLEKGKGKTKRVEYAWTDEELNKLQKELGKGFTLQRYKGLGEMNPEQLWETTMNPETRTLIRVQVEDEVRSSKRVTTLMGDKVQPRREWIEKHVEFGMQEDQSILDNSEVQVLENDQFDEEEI

Compound: Cn1c(=O)ccc2ccc(F)c(CCNC[C@H]3CN(c4cnc5c(n4)NC(=O)CO5)C(=O)O3)c21 [BWC0977]
- type of DNA breaks induced (E. coli topoisomerase IV [1]): single-strand DNA breaks
- MIC (K. pneumoniae KPNIH1): 1 µg/mL (≈ 2.13 µM)
- IC50 [2]: 110 nM
- inhibition at 0.0037 µM ([2]; S. aureus topo IV, compound 0.0037 μM, source data Fig 2C, read-out: Topo IV decatenation inhibition response): 0%
- Topo IV decatenation inhibition response ([2]; S. aureus topo IV, compound 0.0988 μM, source data Fig 2C, listed as 977, 0.0988 µM): 31.67 and 43.21 and 56.17
- Topo IV decatenation inhibition response ([2]; S. aureus topo IV, compound 0.2963 μM, source data Fig 2C, listed as 977, 0.2963 µM): 76.23 and 76.66
- inhibition at 0.2963 µM ([2]; S. aureus topo IV, compound 0.2963 μM, source data Fig 2C, read-out: Topo IV decatenation inhibition response): 67%
- Topo IV decatenation inhibition response ([2]; S. aureus topo IV, compound 0.8889 μM, source data Fig 2C, listed as 977, 0.8889 µM): 92.92 and 90.9
- inhibition at 0.8889 µM ([2]; S. aureus topo IV, compound 0.8889 μM, source data Fig 2C, read-out: Topo IV decatenation inhibition response): 89.7%
- inhibition at 2.6667 µM ([2]; S. aureus topo IV, compound 2.6667 μM, source data Fig 2C, read-out: Topo IV decatenation inhibition response): 98.1%
- Topo IV decatenation inhibition response ([2]; S. aureus topo IV, compound 8 μM, source data Fig 2C, listed as 977, 8 µM): 99.9 and 99.56
- inhibition at 8 µM ([2]; S. aureus topo IV, compound 8 μM, source data Fig 2C, read-out: Topo IV decatenation inhibition response): 99.7%
- MIC (P. aeruginosa BAA 2797): 0.25 µg/mL (≈ 0.534 µM)
- type of DNA breaks induced (E. coli gyrase): single-strand DNA breaks
- selectivity for bacterial enzymes over human topoisomerases IIα and IIβ (Human topo IIα): more than 5000 fold
- IC50 (Human topo IIα; read-out: IC50 Human topo IIα decatenation): 113000 ± 13000 nM
- MIC [3]: 0.0625 µg/mL (≈ 0.133 µM)
- Topo IV decatenation inhibition response (E. coli topoisomerase IV [4]; E. coli topo IV, compound 0.008 μM, source data Fig 2A, listed as 977, 0.008 µM): 28.08 and 39.25
- inhibition at 0.008 µM (E. coli topoisomerase IV [4]; E. coli topo IV, compound 0.008 μM, source data Fig 2A, read-out: Topo IV decatenation inhibition response): 30.8%
- Topo IV decatenation inhibition response (E. coli topoisomerase IV [4]; E. coli topo IV, compound 0.074 μM, source data Fig 2A, listed as 977, 0.074 µM): 89.53 and 79.92
- inhibition at 0.074 µM (E. coli topoisomerase IV [4]; E. coli topo IV, compound 0.074 μM, source data Fig 2A, read-out: Topo IV decatenation inhibition response): 75.6%
- Topo IV decatenation inhibition response (E. coli topoisomerase IV [4]; E. coli topo IV, compound 0.222 μM, source data Fig 2A, listed as 977, 0.222 µM): 92.32 and 88.38
- inhibition at 0.222 µM (E. coli topoisomerase IV [4]; E. coli topo IV, compound 0.222 μM, source data Fig 2A, read-out: Topo IV decatenation inhibition response): 83.4%
- Topo IV decatenation inhibition response (E. coli topoisomerase IV [4]; E. coli topo IV, compound 2 μM, source data Fig 2A, listed as 977, 2 µM): 94.13 and 90.30
- inhibition at 2 µM (E. coli topoisomerase IV [4]; E. coli topo IV, compound 2 μM, source data Fig 2A, read-out: Topo IV decatenation inhibition response): 84.8%
- higher inhibition potency compared to compound 17a (E. coli topoisomerase IV [4]; E. coli topoisomerase IV): ~ 20 fold
- IC50 (E. coli topoisomerase IV [4]; read-out: IC50 E. coli topo IV decatenation): 13 ± 4 nM
- MIC [5]: 0.03 µg/mL (≈ 0.064 µM)
- MIC (E. faecalis ATCC 29212): 0.03 µg/mL (≈ 0.064 µM)
- resistant colonies on exposure (E. coli ATCC 25922 [6]): no resistant colonies
- MIC (E. coli ATCC 25922 [7]; ATCC25922, 24 h): 0.015 µg/mL (≈ 0.032 µM)
- MIC (E. coli ATCC 25922 [7]; ATCC25922, 288 h): 0.125 µg/mL (≈ 0.267 µM)
- IC50 [8]: 77 nM
- Topo IV decatenation inhibition response ([8]; P. aeruginosa topo IV, compound 0.0114 μM, source data Fig 2B, listed as 977, 0.0114 µM): 7.06
- inhibition at 0.0114 µM ([8]; P. aeruginosa topo IV, compound 0.0114 μM, source data Fig 2B, read-out: Topo IV decatenation inhibition response): 10.9%
- Topo IV decatenation inhibition response ([8]; P. aeruginosa topo IV, compound 0.0343 μM, source data Fig 2B, listed as 977, 0.0343 µM): 24.14
- inhibition at 0.0343 µM ([8]; P. aeruginosa topo IV, compound 0.0343 μM, source data Fig 2B, read-out: Topo IV decatenation inhibition response): 18.9%
- Topo IV decatenation inhibition response ([8]; P. aeruginosa topo IV, compound 0.1029 μM, source data Fig 2B, listed as 977, 0.1029 µM): 63.17
- inhibition at 0.1029 µM ([8]; P. aeruginosa topo IV, compound 0.1029 μM, source data Fig 2B, read-out: Topo IV decatenation inhibition response): 61.6%
- Topo IV decatenation inhibition response ([8]; P. aeruginosa topo IV, compound 0.3086 μM, source data Fig 2B, listed as 977, 0.3086 µM): 85.90
- inhibition at 0.3086 µM ([8]; P. aeruginosa topo IV, compound 0.3086 μM, source data Fig 2B, read-out: Topo IV decatenation inhibition response): 88.3%
- Topo IV decatenation inhibition response ([8]; P. aeruginosa topo IV, compound 0.9259 μM, source data Fig 2B, listed as 977, 0.9259 µM): 91.28
- inhibition at 0.9259 µM ([8]; P. aeruginosa topo IV, compound 0.9259 μM, source data Fig 2B, read-out: Topo IV decatenation inhibition response): 91.1%
- Topo IV decatenation inhibition response ([8]; P. aeruginosa topo IV, compound 2.7778 μM, source data Fig 2B, listed as 977, 2.7778 µM): 91.48
- inhibition at 2.7778 µM ([8]; P. aeruginosa topo IV, compound 2.7778 μM, source data Fig 2B, read-out: Topo IV decatenation inhibition response): 94.5%
- Topo IV decatenation inhibition response ([8]; P. aeruginosa topo IV, compound 8.3333 μM, source data Fig 2B, listed as 977, 8.3333 µM): 92.85
- inhibition at 8.3333 µM ([8]; P. aeruginosa topo IV, compound 8.3333 μM, source data Fig 2B, read-out: Topo IV decatenation inhibition response): 97.1%
- Topo IV decatenation inhibition response ([8]; P. aeruginosa topo IV, compound 25 μM, source data Fig 2B, listed as 977, 25 µM): 94.54
- inhibition at 25 µM ([8]; P. aeruginosa topo IV, compound 25 μM, source data Fig 2B, read-out: Topo IV decatenation inhibition response): 99.2%
- MIC90 against diverse global isolates (S. aureus): 0.03 µg/mL (≈ 0.064 µM)
- MIC (E. coli BAA 2471): 0.5 µg/mL (≈ 1.07 µM)

From publication PMC12647645, “Structural interactions of BWC0977 with Klebsiella pneumoniae topoisomerase IV and biochemical basis of its broad-spectrum activity” (Communications Biology, 2025)
